Data reported in patent US20080311047A1, “Multimetric Biosensors and Methods of Using Same” (priority 2005, published 2008).

Legend:
[1] = molecular target: T1, FLIPW-CTY (eCFP-TrpR-Venus) (Escherichia coli, UniProt P0A881); assay: In vitro FRET titration of FLIPW-CTY with tryptophan substrates; assay type: binding, E. coli; details: for Kd: 20 mM MOPS pH 7.0, read-out: Affinity of FLIPW-CTY for tryptophan substrate
T1 construct: made in house; host or cells: E. coli BL21(DE3)gold
Experimental: (§1) In Vitro Characterization of FLIPW and FLIPpur Sensors: Purified sensor was added to a dilution series of ligand in 20 mM MOPS pH 7.0 (FLIPW) or 20 mM MES pH7.0 (FLIPpur) in the range of 10^−2 to 10^−6 M and analyzed in a monochromator microplate reader (Safire, Tecan, Austria; excitation 433/12 nm, emission 485/12 and 528/12 nm). Protein was diluted to give Venus/eYFP readouts of 20,000 to 30,000 at a manual gain between 70-75. By using the change in FRET ratio upon binding of ligand, binding constants (Kd) were determined by fitting the substrate titration curves to a single-site-binding isotherm. Formulas for decrease in ratio upon ligand binding:
(§2) R=Rmax−(n·[S])/(Kd+[S])·(Rmax−Rmin)
(§3) with [S], substrate concentration; n, number of equal binding sites; R, ratio; Rmax, maximum ratio in the absence of ligand; and Rmin, minimum ratio at saturation with ligand. Formula for increase in ratio upon ligand binding:
(§4) R=Rmin+(Rmax−Rmin)·(n·[S])/(Kd+[S])
(§5) with [S], substrate concentration; n, number of equal binding sites; R, ratio; Rmax, maximum ratio at saturation with ligand; and Rmin, minimum ratio in absence of ligand. Three independent protein preparations were analyzed and each protein preparation was analyzed in triplicate.

[2] = test system: E. coli tryptophan operon repressor TrpR, wild-type, SEQ ID NO: 1; details: Marmorstein et al. 1987; cited from earlier work
COS-7 cells [3] = assay: tryptophan uptake by COS-7 cell cultures in 96-well microplates monitored with FLIPW-CTYT; assay type: cell-based, monkey; details: in words
Experimental: (§6) Tissue Culture and Transfection: For cytosolic expression in COS-7 cells, the gene encoding CTYT was amplified by PCR with primers encoding unique BamHI and EcoRI restriction sites at the 5′ and 3′ end, respectively, and cloned into BamHI/EcoRI digested pcDNA3.1(+) vector (Invitrogen), resulting in plasmid pTK222. COS-7 cells were grown in Dulbecco's modified Eagle's medium (high glucose; DMEM, Gibco) with 10% fetal calf serum and 50 μg/ml penicillin and streptomycin (Gibco). Cells were cultured at 37° C. and 5% CO2. For imaging, cells were cultured in 8-well LabTekII German tissue culture glass slides (Nalg Nunc International) and transiently transfected at 50-70% confluence using Lipofectamine 2000 Reagent (Invitrogen) in Opti-MEM I reduced serum medium (Gibco). After transfection, cells were cultured for 16 hours in Opti-MEM followed by 3 hours in DMEM prior to imaging.
(§7) Microplate Assays: Adherent cells in 96-well microplates were washed once with 100 μl Tyrode's buffer (119 mM NaCl, 2.5 mM KCl, 2 mM CaCl2, 2 mM MgCl2, 25 mM HEPES, 30 mM glucose, pH 7.3-7.4).

COS-7 cells [4] = details: read-out: apparent KM for combined transport and metabolism
Experimental: as §6, §7

LAT2 = molecular target: T2, LAT2 (Homo sapiens, UniProt Q9UHI5); details: LAT2 in Xenopus oocytes (Pineda et al. 1999); cited from earlier work
T2 construct: host or cells: Xenopus oocytes
T2 sequence (Q9UHI5 1-535): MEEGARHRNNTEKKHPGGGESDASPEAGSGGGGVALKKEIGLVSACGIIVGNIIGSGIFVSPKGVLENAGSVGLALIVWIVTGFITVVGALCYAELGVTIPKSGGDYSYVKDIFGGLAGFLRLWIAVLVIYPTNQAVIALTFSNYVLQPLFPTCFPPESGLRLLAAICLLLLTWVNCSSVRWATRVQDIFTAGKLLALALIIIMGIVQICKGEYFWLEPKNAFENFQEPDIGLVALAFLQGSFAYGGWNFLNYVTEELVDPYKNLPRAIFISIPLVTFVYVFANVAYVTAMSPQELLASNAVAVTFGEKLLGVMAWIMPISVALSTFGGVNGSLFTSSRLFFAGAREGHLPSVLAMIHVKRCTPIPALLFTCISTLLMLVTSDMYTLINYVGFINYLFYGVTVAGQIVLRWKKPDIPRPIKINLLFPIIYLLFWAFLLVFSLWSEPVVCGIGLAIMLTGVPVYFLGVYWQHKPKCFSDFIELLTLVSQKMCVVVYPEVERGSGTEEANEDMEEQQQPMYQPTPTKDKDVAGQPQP

[5] = molecular target: T3, FLIPW-CTYT (eCFP-TrpR-Venus-TrpR) (Escherichia coli, UniProt P0A881); assay: In vitro FRET titration of FLIPW-CTYT with tryptophan substrates; assay type: binding, E. coli; details: 20 mM MOPS pH 7.0; read-out: Affinity of FLIPW-CTYT for tryptophan substrate
T3 construct: The gene products of pTK203, pTK204, and pTK205 were denoted FLIPW-TCTY, FLIPW-CTYT, and FLIPW-CTTY, respectively; made in house; host or cells: E. coli BL21(DE3)gold
Experimental: as §1, §2, §3, §4, §5

[6] = molecular target: FLIPW-TCTY (TrpR-eCFP-TrpR-Venus fusion of E. coli tryptophan repressor TrpR, SEQ ID NO: 5) (Escherichia coli, UniProt P0A881); assay: L-tryptophan titration of FLIPW-TCTY by FRET ratio change; details: 20 mM MOPS pH 7.0, apparent binding constant
[7] = molecular target: FLIPW-CTY (eCFP-TrpR-Venus fusion of E. coli tryptophan repressor TrpR, SEQ ID NO: 3) (Escherichia coli, UniProt P0A881); assay: L-tryptophan analog titration of FLIPW-CTY by FRET ratio change, single-site-binding isotherm; details: FLIPW-CTY Kd compared with free TrpR (Marmorstein et al. 1987); larger than free TrpR
Text: The protein sequence encoded on pTK164 was denoted FLIPW-CTY.

human TAT1 = molecular target: T4, human TAT1 (Homo sapiens, UniProt Q8TF71); details: human TAT1 in Xenopus oocytes (Kim et al. 2002); cited from earlier work
T4 construct: host or cells: Xenopus oocytes
T4 sequence (Q8TF71 1-515): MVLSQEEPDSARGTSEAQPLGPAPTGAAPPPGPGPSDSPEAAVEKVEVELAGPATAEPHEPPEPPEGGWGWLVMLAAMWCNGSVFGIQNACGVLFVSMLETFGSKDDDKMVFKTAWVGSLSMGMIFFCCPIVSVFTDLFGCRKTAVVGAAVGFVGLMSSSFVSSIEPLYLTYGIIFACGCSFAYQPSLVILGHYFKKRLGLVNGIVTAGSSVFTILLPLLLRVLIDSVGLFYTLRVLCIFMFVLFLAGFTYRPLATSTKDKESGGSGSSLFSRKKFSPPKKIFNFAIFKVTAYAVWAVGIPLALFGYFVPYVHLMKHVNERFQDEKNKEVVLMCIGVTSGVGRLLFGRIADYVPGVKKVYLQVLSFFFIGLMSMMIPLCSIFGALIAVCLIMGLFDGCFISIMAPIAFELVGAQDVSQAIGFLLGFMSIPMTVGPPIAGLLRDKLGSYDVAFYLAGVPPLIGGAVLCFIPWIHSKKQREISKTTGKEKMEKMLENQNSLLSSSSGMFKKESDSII

[8] = molecular target: T5, FLIPpur (His6-eCFP-PurR-eYFP fusion of E. coli purine repressor PurR, residues 56 to 341, Arg190Gln, Leu263Pro) (Escherichia coli, UniProt P0ACP7, L263P/R190Q); assay: hypoxanthine titration of FLIPpur by FRET ratio change; assay type: binding
T5 construct: expressed in E. coli BL21(DE3)gold, purified
T5 sequence (P0ACP7 56-341 R190Q/L263P): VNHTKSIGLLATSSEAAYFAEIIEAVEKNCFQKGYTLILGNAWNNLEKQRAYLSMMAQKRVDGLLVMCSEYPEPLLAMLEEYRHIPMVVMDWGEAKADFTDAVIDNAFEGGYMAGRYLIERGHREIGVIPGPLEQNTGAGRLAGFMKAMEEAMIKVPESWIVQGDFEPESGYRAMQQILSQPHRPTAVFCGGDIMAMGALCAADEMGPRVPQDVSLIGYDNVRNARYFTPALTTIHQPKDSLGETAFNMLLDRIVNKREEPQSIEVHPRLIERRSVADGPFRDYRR
Text: FLIPW and FLIPpur constructs were harbored in E. coli BL21(DE3)gold and sensor proteins were produced and purified as described previously (Fehr et al. 2002).

[9] = test system: E. coli purine repressor PurR variant Arg190Gln; details: Lu et al. 1998; cited from earlier work

N[C@H](Cc1c[nH]c2ccccc12)C(=O)O [D-tryptophan]
Kd [1]: 3100 ± 300 µM
Concentration giving decrease of FRET ratio relative to L-tryptophan ([1]; titration of FLIPW-CTY, higher concentrations than L-tryptophan): about 5 fold

N[C@@H](Cc1c[nH]c2ccc(O)cc12)C(=O)O [L-5-hydroxy-tryptophan]
Kd [1]: 6000 ± 800 µM

Cc1ccc2[nH]cc(C[C@H](N)C(=O)O)c2c1 [L-5-methyl-tryptophan]
Kd [1]: 60 ± 10 µM

N[C@@H](Cc1c[nH]c2ccccc12)C(=O)O [L-tryptophan]
affinity [2]: micromolar affinity
effective KM for combined tryptophan uptake and metabolism (COS-7 cells [3]): in the micromolar range
Km (COS-7 cells [4]): 0.88 ± 0.27 µM
Tryptophan uptake affinity (LAT2): 58 µM
Kd [5]: 210 ± 20 µM
Kd [1]: 220 ± 20 µM
Kd [6]: 20 µM
apparent Kd relative to free TrpR [7]: about an order of magnitude
Tryptophan uptake affinity (human TAT1): 450 µM

O=c1[nH]cnc2nc[nH]c12 [hypoxanthine]
Kd [8]: 5.6 ± 0.7 µM
Kd of free PurR Arg190Gln compared with FLIPpur [9]: identical to that of free PurR Arg190Gln
